Patent publication US6677331B2, “Carbapenem derivatives” (Meiji Seika Kaisha, Ltd., priority 1998, dated 2004)

What was measured:
[1] = Test 4: Oral Absorption Ability Test (2); format: in vivo, mice (ICR, male)
Description: The compounds of Examples 62, 63 and 69 were orally administered to mice (ICR, male, n=3) in an amount of 0.5 mg (based on the weight of the compound of Example 62 from which the compounds of Examples 63 and 69 were derived)/0.2 ml/mouse as a 0.5% methylcellulose suspension, and then cilastatin was immediately administered subcutaneously in the same amount (because of the instability of the compound of Example 62 to mouse DHP-I, cilastatin as an inhibitor of DHP-I was used in combination). As a result, the compound of Example 62 was excreted in urine in 6%, 18% and 35% of bio-availability (BA) by 24 hours after the compounds of Examples 62, 63 and 69 were administered. The “BA” is a ratio of the recovery of a mother compound in urine when a test compound, i.e., a pro-drug of the mother compound , is orally administered to the recovery of the mother compound when the mother compound is administered intravenously. Some compounds were tested in the same manner as in Test 3 provided that 5%HCO60 was used instead of 0.5% methylcellulose suspension.

[2] = Test 5: Acute Toxicity (i.v.); format: in vivo, mice (ICR, male)
Description: The compounds of Examples 44, 62, 88, and 111 were tested again in the same manner as the above provided that cilastatin sodium was co-administered.

M. catarrhalis W-0500 = assay: Test 1: Anti-Microbial Activities (MIC); format: cell-based; settings: Moraxella catarrhalis, W0500, Sensitivity Disk agar-N+5% Horse blood, inoculants 10^6 CFU/ml, read-out: minimum inhibiting concentrations (MIC)
Description: (§1) The minimum inhibiting concentrations (MIC, μg/ml) of the compounds according to the present invention to various pathogenic bacteria was measured in accordance with the method described in CHEMOTHERAPY, vol. 16, No. 1,99, 1968. The culture medium for measurement was Sensitivity Disk agar-N+5% Horse blood, and the amount of inoculants was 10^6 CFU/ml.

E. faecalis W-73 = assay: Test 1: Anti-Microbial Activities (MIC); format: cell-based; settings: Enterococcus faecalis, W73, Sensitivity Disk agar-N+5% Horse blood, inoculants 10^6 CFU/ml, read-out: minimum inhibiting concentrations (MIC)
Description: as §1

S. pneumoniae PRC9 = assay: Test 1: Anti-Microbial Activities (MIC); format: cell-based; settings: Streptococcus pneumoniae; S. pneumoniae PRC9, penicillin-hyperresistant strain (PRSP); Sensitivity Disk agar-N+5% Horse blood; inoculants 10^6 CFU/ml; read-out: minimum inhibiting concentrations (MIC)
Description: as §1

K. pneumoniae PCI602 = assay: Test 1: Anti-Microbial Activities (MIC); format: cell-based; settings: Klebsiella pneumoniae, Sensitivity Disk agar-N+5% Horse blood, inoculants 10^6 CFU/ml, read-out: minimum inhibiting concentrations (MIC)
Description: as §1

S. epidermidis ATCC14990 = assay: Test 1: Anti-Microbial Activities (MIC); format: cell-based; settings: Staphylococcus epidermidis, Sensitivity Disk agar-N+5% Horse blood, inoculants 10^6 CFU/ml, read-out: minimum inhibiting concentrations (MIC)
Description: as §1

H. influenzae PRC44 = assay: Test 1: Anti-Microbial Activities (MIC); format: cell-based; settings: Haemophilus influenzae, Sensitivity Disk agar-N+5% Horse blood, inoculants 10^6 CFU/ml, read-out: minimum inhibiting concentrations (MIC)
Description: as §1

H. influenzae PRC2 = assay: Test 1: Anti-Microbial Activities (MIC); format: cell-based; settings: Haemophilus influenzae, Sensitivity Disk agar-N+5% Horse blood, inoculants 10^6 CFU/ml, read-out: minimum inhibiting concentrations (MIC)
Description: as §1

S. aureus 209P JC-1 = assay: Test 1: Anti-Microbial Activities (MIC); format: cell-based; settings: Staphylococcus aureus, Sensitivity Disk agar-N+5% Horse blood, inoculants 10^6 CFU/ml, read-out: minimum inhibiting concentrations (MIC)
Description: as §1

E. coli NIHJ JC-2 = assay: Test 1: Anti-Microbial Activities (MIC); format: cell-based; settings: Escherichia coli, NIHJJC2, Sensitivity Disk agar-N+5% Horse blood, inoculants 10^6 CFU/ml, read-out: minimum inhibiting concentrations (MIC)
Description: as §1

E. hirae ATCC8043 = assay: Test 1: Anti-Microbial Activities (MIC); format: cell-based; settings: Enterococcus hirae, Sensitivity Disk agar-N+5% Horse blood, inoculants 10^6 CFU/ml, read-out: minimum inhibiting concentrations (MIC)
Description: as §1

P. vulgaris GN7919 = assay: Test 1: Anti-Microbial Activities (MIC); format: cell-based; settings: Proteus vulgaris, Sensitivity Disk agar-N+5% Horse blood, inoculants 10^6 CFU/ml, read-out: minimum inhibiting concentrations (MIC)
Description: as §1

S. aureus M126 = assay: Test 1: Anti-Microbial Activities (MIC); format: cell-based; settings: Staphylococcus aureus; S. aureus M126, methicillin-hyperresistant strain (MRSA); Sensitivity Disk agar-N+5% Horse blood; inoculants 10^6 CFU/ml; read-out: minimum inhibiting concentrations (MIC)
Description: as §1

C. freundii GN346 = assay: Test 1: Anti-Microbial Activities (MIC); format: cell-based; settings: Citrobacter freundii, Sensitivity Disk agar-N+5% Horse blood, inoculants 10^6 CFU/ml, read-out: minimum inhibiting concentrations (MIC)
Description: as §1

mouse DHP-I = target: T1, mouse DHP-I (Mus musculus, UniProt P31428); assay: Test 2: stability against DHP-I (mouse); settings: partly purified Mouse DHP-I; 100 μg (titer)/ml; 37° C., 3 hours; HPLC
T1 sequence (P31428 17-384): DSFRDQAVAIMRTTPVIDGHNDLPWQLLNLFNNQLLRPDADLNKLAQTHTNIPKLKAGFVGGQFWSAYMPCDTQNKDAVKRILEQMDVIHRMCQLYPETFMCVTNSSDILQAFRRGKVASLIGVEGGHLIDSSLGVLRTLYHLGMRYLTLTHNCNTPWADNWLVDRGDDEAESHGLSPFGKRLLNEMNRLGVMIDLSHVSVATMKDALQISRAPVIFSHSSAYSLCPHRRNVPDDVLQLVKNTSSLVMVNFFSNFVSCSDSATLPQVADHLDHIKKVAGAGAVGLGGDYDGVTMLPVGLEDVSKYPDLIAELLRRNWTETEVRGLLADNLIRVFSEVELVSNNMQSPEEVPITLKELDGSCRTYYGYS

porcine renal DHP-I = target: T2, porcine renal DHP-I (Sus scrofa, UniProt P22412); assay: Test 2: stability against DHP-I (porcine); settings: partly purified Porcine DHP-I, 100 μg (titer)/ml, 37° C., HPLC
T2 sequence (P22412 17-384): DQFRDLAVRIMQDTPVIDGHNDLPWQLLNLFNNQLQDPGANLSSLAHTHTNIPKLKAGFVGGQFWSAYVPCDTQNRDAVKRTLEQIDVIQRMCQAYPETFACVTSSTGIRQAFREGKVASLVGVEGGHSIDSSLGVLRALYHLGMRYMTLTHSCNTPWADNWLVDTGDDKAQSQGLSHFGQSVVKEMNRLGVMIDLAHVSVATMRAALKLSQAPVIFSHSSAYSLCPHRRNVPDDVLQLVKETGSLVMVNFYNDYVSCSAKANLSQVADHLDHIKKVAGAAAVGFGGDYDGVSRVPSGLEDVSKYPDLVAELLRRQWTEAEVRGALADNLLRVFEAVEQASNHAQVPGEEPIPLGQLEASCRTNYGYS

[3] = solubility (remark in the acute toxicity test); format: physicochemical; settings: reason for the lower i.v. dose

Row | Molecule | bio-availability (BA): mother compound excreted in urine by 24 hours ([1]; mouse, in vivo, po) [%] | MIC (M. catarrhalis W-0500) [µg/mL] | MIC (E. faecalis W-73) [µg/mL] | MIC (S. pneumoniae PRC9) [µg/mL] | MIC (K. pneumoniae PCI602) [µg/mL] | MIC (S. epidermidis ATCC14990) [µg/mL] | MIC (H. influenzae PRC44) [µg/mL] | MIC (H. influenzae PRC2) [µg/mL] | MIC (S. aureus 209P JC-1) [µg/mL] | MIC (E. coli NIHJ JC-2) [µg/mL] | MIC (E. hirae ATCC8043) [µg/mL] | MIC (P. vulgaris GN7919) [µg/mL] | MIC (S. aureus M126) [µg/mL] | MIC (C. freundii GN346) [µg/mL] | further results
1 | 1-Adamantylcarbonyloxymethyl (1S,5R,6S)-6-((1R)-1-hydroxyethyl)-methyl-2-(7-methylthio-imidazo[5,1-b]thiazol-2-yl)-1-carbapen-2-em-3-carboxylate [Example 250] | 39 | – | – | – | – | – | – | – | – | – | – | – | – | – | –
2 | C[C@@H](O)[C@H]1C(=O)N2C(C(=O)[O-])=C(c3cn4cnc(S(=O)(=O)N(C)C)c4s3)[C@H](C)[C@H]12.[Na+] [Example 88, Sodium (1S,5R,6S)-2-[7-(N,N-dimethylsulfamoyl)imidazo[5,1-b]thiazol-2-yl]-6-((1R)-1-hydroxyethyl)-1-methyl-1-carbapen-2-em-3-carboxylate] | – | < 0.025 | 0.39 | 0.05 | 0.39 | < 0.025 | 0.1 | < 0.025 | < 0.025 | 0.39 | 0.39 | 0.78 | 1.56 | 3.13 | survival (acute toxicity) ([2]; mice, 2,000 mg/kg i.v.): All of the animal survived; survival (acute toxicity) ([2]; mice, 2,000 mg/kg i.v., cilastatin sodium co-administered): All of the animal survived; residual amounts (%) after 3 hours (mouse DHP-I): <0.1%; residual amounts (%) after 3 hours (porcine renal DHP-I): 73%
3 | CSc1ncn2cc(C3=C(C(=O)[O-])N4C(=O)[C@H]([C@@H](C)O)[C@H]4[C@H]3C)sc12.[Na+] [Example 111, Sodium (1S,5R,6S)-6-((1R)-1-Hydroxyethyl)-1-methyl-2-(7-methylthioimidazo[5,1-b]thiazol-2-yl)-1-carbapen-2-em-3-carboxylate] | – | < 0.025 | 0.2 | 0.05 | 0.78 | < 0.025 | 0.05 | < 0.025 | < 0.025 | 0.78 | 0.39 | 0.39 | 1.56 | 1.56 | survival (acute toxicity) ([2]; mice, 1,500 mg/kg i.v.): All of the animal survived; survival (acute toxicity) ([2]; mice, 1,500 mg/kg i.v., cilastatin sodium co-administered): All of the animal survived; solubility [3]: limited solubility
4 | CC(C)C1CC[C@H](C)CC1OC(=O)OCOC(=O)C1=C(c2cn3cnc(S(C)(=O)=O)c3s2)[C@H](C)[C@@H]2[C@@H]([C@@H](C)O)C(=O)N12 (stereo partly drawn) [Example 218, (1S,2R,5s)-(d)-Menthyloxycarbonyloxymethyl (1S,5R,6S)-6-((1R)-1-hydroxyethyl)-2-(7-methanesulfonylimidazo[5,1-b]thiazol2-yl)-1-methyl-1-carbapen-2-em-3-carboxylate] | – | – | – | – | – | – | – | – | – | – | – | – | – | – | bio-availability (BA): mother compound excreted in urine by 24 hours ([1]; mice, oral, same as Test 3 but 5%HCO60 instead of 0.5% methylcellulose suspension): 26%
5 | CSc1ncn2cc(C3=C(C(=O)OCOC(=O)c4ccccc4)N4C(=O)[C@H]([C@@H](C)O)[C@H]4[C@H]3C)sc12 [Example 253, Benzoylxymethyl (1S,5R,6S)-6-((1R)-1-hydroxyethyl)-1-methyl-2-(7-methylthioimidazo-[5,1-b]thiazol-2-yl)-1-carbapen-2-em-3-carboxylate] | 37 | – | – | – | – | – | – | – | – | – | – | – | – | – | –
6 | CSc1ncn2cc(C3=C(C(=O)OC(C)OC(=O)OCCC(C)C)N4C(=O)[C@H]([C@@H](C)O)[C@H]4[C@H]3C)sc12 (stereo partly drawn) [Example 273, 1-(3-Methyl-1-butyloxycarbonylbxy)ethyl (1S,5R,6S)-6-((1R)-1-hydroxyethyl)-1-methyl-2-(7-methylthioimidazo[5,1-b]thiazol-2-yl1)-1-carbapen-2-em-3-carboxylate] | 36 | – | – | – | – | – | – | – | – | – | – | – | – | – | –
